Where a name gives a salt, the structure may show the parent alone. Read-outs that look alike come from different tables or passages of the source.
Columns and labels:
Src = biological target: T1, Src (Homo sapiens, UniProt P12931); assay: Src protein tyrosine kinase inhibition (ELISA of Poly[Glu:Tyr-P]); assay type: biochemical
T1 construct: host or cells: Sf9 insect cells
Procedure: Src protein tyrosine kinase activity was assessed in human recombinant insect Sf9 cells using as a substrate Poly(Glu:Tyr) at 10 µg/mL with preincubation and incubation times of 15 and 5 min, respectively, at 22°C in 50 mM HEPES, pH 7.4, 1 mM DTT, 20 mM MgCl2 and 0.2 mM Na3VO4. An ELISA quantitation method of Poly[Glu:Tyr-P] was employed (Farley, K et al. Anal Biochem, 1992, 203, 151-157). Table 4. Inhibition of Src at 10 µM

Akt3 (PRKBG) = biological target: T2, Akt3 (PRKBG) (Homo sapiens, UniProt Q9Y243); assay: Akt3 kinase inhibition ([32P]Crosstide KK); assay type: biochemical
T2 construct: host or cells: insect cells
Procedure: Akt3 activity was obtained in human recombinant insect cells using Crosstide KK 10 µM as a substrate. The incubation buffer was 20 mM MOPS, pH 7.2, 25 mM β-Glycerophosphate, 1 mM DTT, 5 mM EGTA, 20 mM MgCl2, 1 mM Na3VO4 and the preincubation and incubation times 15 and 30 min, respectively, at 37°C. The quantification of inhibition was assessed by the measure of [^32P]Crosstide KK (Laine, J. Et al. J Biol Chem 2002, 277(5), 3743-3751). Table 6. Inhibition of Akt3 (PRKBG) at 10 µM

[1] = biological target: T3, CDK2/CCNA2 (cdk2/cyclin A) (Homo sapiens, UniProt P24941); assay: CDK2/cyclin A kinase inhibition ([32P]Histone H1); assay type: biochemical
T3 construct: host or cells: Sf21 insect cells
Procedure: Human recombinant Sf21 cells were employed to assess the activity on protein serine threonine kinase CDK2/CCNA2 (cdk2/cyclin A). Histone H1 at 100 µg/ml was used as a substrate and the activity was measured by quantification of [^32P]Histone H1 after preincubation and incubation times of 15 and 30 min, respectively, at 37°C in 20 mM MOPS, pH 7.2, 5 mM EGTA, 20 mM MgCl2, 1 mM DTT, 25 mM β-Glycerophosphate, 1 mM Na3V04 incubation buffer (Gray, N. et al. Curr Med Chem, 1999, 6(9):859-875). Table 7. Inhibition of CDK2 at 10 µM

MAPK1 (ERK2) = biological target: T4, MAPK1 (ERK2) (Homo sapiens, UniProt P28482); assay: MAPK1 (ERK2) kinase inhibition ([32P]MBP); assay type: biochemical
T4 construct: host or cells: E. coli
Procedure: Protein serine threonine kinase MAPK1(ERK2) was assessed in human recombinant E.Coli using 50 µg/ml myelin basic protein (MBP) as a substrate after preincubation and incubation times of 15 and 30 min, respectively, at 37°C in 20 mM MOPS, pH 7.2, 5 mM EGTA, 20 mM MgCl2, 1 mM DTT, 25 mM β-glycerophosphate, 1 mM Na3VO4 incubation buffer. The inhibitory activity was measured by quantification of [^32P]MBP (Jonhson, G.L. and Lapadat, R. Science 2002, 298(5600), 1911-1912). Table 8. Inhibition of MAPK1 at 10 µM

tumor brain U-87 MG = assay: Tumor cell proliferation assay (alamarBlue); assay type: cell-based; conditions: Homo sapiens; tumor brain U-87 MG; read-out: IC50
Method in brief: (§1)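 Human or murine tumor cells were exposed to test substances at assay concentrations from 0.01 to 100 µM. Proliferation was then quantified through conversion of alamarBlue to its fluorescent reduced form by viable cells.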

tumor breast MCF-7 = assay: Tumor cell proliferation assay (alamarBlue); assay type: cell-based; conditions: Homo sapiens, MCF7
Method in brief: as §1

tumor breast MDA-MB-231 = assay: Tumor cell proliferation assay (alamarBlue); assay type: cell-based; conditions: Homo sapiens
Method in brief: as §1

tumor breast T-47D = assay: Tumor cell proliferation assay (alamarBlue); assay type: cell-based; conditions: Homo sapiens, T47D
Method in brief: as §1

tumor colon HCT-116 = assay: Tumor cell proliferation assay (alamarBlue); assay type: cell-based; conditions: Homo sapiens; tumor colon HCT-116; read-out: IC50
Method in brief: as §1

tumor liver Hep 3B = assay: Tumor cell proliferation assay (alamarBlue); assay type: cell-based; conditions: Homo sapiens, Hep3B
Method in brief: as §1

tumor ovary OVCAR-3 = assay: Tumor cell proliferation assay (alamarBlue); assay type: cell-based; conditions: Homo sapiens; tumor ovary OVCAR-3; read-out: IC50
Method in brief: as §1

[2] = Maximum Tolerated Dose after acute administration; conditions: mouse, in vivo, ip, mice
Procedure: The Maximum Tolerated Dose (MTD) in mice was determined for selected compounds. The protocol of the studies was in accordance with the standard guidelines for drug development: • (htp://dtp.nci.nih.gov/branches/btb/acute tox.html). Table 10. Maximum Tolerated Doses in mice after acute i.p. administration

mice [3] = assay: Hot plate test (analgesic activity); assay type: in vivo
Procedure: The hot plate test was used as an animal model of thermally-induced pain. The inhibitory activity measured on the time licking and biting induced by temperature (30 sec max at 55°C) indicates analgesic effect. […] Table 13. Analgesic activity of example 1 in the hot plate test

ERα = ERα (Homo sapiens, UniProt P03372); assay: Inhibition of ERα; assay type: binding; conditions: slight, non-significant
ERβ = ERβ (Homo sapiens, UniProt Q92731); assay: Inhibition of ERβ; assay type: binding; conditions: slight, non-significant
mice [4] = assay: Hot plate test (analgesic activity); assay type: in vivo; remark: listed apart in the source

T4 sequence (P28482 whole entry): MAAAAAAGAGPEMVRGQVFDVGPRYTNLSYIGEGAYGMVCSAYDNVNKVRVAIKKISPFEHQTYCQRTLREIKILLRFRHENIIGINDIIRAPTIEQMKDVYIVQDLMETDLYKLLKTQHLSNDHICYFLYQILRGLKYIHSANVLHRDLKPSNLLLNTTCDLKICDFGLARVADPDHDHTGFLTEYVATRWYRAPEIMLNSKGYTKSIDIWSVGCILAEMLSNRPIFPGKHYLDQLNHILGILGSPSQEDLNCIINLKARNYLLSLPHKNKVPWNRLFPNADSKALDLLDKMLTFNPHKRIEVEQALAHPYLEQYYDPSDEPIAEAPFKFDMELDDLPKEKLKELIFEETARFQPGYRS
T1 sequence (P12931 whole entry): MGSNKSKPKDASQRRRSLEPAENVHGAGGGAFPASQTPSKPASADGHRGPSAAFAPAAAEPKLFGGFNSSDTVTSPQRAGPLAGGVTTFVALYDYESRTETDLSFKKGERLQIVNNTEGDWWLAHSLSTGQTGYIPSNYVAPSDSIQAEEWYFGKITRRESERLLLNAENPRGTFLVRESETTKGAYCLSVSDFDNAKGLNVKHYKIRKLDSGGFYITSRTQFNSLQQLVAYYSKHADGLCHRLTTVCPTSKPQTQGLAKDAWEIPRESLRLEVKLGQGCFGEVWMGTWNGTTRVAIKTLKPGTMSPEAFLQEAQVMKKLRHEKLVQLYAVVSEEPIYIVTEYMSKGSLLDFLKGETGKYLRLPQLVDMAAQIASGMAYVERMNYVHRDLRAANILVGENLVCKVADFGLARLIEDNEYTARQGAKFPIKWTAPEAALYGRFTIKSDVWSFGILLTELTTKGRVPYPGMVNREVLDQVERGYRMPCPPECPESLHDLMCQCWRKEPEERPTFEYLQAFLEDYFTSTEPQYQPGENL
T2 sequence (Q9Y243 whole entry): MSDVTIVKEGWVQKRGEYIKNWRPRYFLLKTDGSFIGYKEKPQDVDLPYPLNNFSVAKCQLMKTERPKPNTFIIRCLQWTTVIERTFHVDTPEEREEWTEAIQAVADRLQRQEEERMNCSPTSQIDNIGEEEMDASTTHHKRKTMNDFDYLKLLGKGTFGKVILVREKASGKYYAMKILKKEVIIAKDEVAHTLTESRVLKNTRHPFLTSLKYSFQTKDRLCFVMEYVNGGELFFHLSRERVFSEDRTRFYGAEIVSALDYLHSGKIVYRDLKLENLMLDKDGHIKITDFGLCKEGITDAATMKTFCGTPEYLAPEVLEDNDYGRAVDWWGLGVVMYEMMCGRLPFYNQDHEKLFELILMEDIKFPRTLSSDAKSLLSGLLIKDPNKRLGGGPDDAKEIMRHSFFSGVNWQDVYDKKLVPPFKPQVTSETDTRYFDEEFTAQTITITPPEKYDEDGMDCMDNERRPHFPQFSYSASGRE
Sequence of ERα (P03372 whole entry, species assumed): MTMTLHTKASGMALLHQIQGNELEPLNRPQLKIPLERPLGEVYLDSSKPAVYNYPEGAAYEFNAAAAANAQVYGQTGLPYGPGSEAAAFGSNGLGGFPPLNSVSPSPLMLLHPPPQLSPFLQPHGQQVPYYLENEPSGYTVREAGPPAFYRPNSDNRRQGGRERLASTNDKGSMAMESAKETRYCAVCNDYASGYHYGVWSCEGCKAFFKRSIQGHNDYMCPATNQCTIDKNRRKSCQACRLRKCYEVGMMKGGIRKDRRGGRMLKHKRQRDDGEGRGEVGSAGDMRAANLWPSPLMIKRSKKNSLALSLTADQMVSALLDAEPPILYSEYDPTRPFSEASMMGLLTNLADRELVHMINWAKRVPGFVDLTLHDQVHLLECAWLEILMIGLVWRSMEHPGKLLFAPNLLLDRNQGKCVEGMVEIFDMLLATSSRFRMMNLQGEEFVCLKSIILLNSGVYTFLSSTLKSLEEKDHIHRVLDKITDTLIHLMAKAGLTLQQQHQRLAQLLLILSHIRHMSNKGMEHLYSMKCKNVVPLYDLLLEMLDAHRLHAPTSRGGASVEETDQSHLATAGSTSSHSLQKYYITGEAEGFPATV
Sequence of ERβ (Q92731 whole entry, species assumed): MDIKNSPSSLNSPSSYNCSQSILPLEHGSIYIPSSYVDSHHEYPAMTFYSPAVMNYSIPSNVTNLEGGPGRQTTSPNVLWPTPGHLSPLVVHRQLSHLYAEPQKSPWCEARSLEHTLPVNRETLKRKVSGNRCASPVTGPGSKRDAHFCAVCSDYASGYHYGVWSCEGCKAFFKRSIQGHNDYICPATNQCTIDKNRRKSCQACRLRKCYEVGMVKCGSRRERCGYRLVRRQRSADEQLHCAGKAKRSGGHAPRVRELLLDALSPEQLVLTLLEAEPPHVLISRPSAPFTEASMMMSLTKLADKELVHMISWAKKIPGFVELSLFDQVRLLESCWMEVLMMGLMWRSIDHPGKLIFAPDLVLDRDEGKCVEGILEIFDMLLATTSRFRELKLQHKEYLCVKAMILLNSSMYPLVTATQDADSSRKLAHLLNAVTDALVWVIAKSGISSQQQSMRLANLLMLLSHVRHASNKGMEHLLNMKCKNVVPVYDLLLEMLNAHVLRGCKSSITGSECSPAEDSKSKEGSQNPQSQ

`C=CCc1ccc(O)c(-c2cc(CC=C)ccc2OC(CCNC)c2ccccc2)c1.Cl` (centres unmarked) [Example 1, 5,5'-Diallyl-2'-[3-(methylamino)-1-phenylpropoxy]biphenyl-2-ol hydrochloride] showed an inhibition at 10 µM (Src; Src, at 10 µM, read-out: % Inhibition) of 99%, an inhibition at 10 µM (Akt3 (PRKBG); Akt3 (PRKBG), at 10 µM, read-out: % Inhibition) of 99% and an inhibition at 10 µM ([1]; CDK2, at 10 µM, read-out: % Inhibition) of 92%. The inhibition at 10 µM (MAPK1 (ERK2); MAPK1, at 10 µM, read-out: % Inhibition) was 58%, the IC50 (tumor brain U-87 MG) was 2 µM and the IC50 (tumor breast MCF-7; tumor breast MCF-7, read-out: IC50) was 1.6 µM. It also gave an IC50 (tumor breast MDA-MB-231; tumor breast MDA-MB-231, read-out: IC50) of 3.3 µM, an IC50 (tumor breast T-47D; tumor breast T-47D, read-out: IC50) of 13 µM and an IC50 (tumor colon HCT-116) of 4.3 µM. The IC50 (tumor liver Hep 3B; tumor liver Hep 3B, read-out: IC50) was 5.6 µM, the IC50 (tumor ovary OVCAR-3) was 4.6 µM and the MTD [2] was 25 mg/kg. For the same molecule, the “Time Licking and biting (sec) Late phase (15-30 min)” value (mice [3]; dose 5 mg/kg i.p.) was 150 s, the “Time Licking and biting (sec) Late phase (15-30 min)” value (mice [3]; dose 10 mg/kg i.p.) was 150 s and the “Time Licking and biting (sec) Late phase (15-30 min)” value (mice [3]; dose 30 mg/kg i.p.) was 20 s. The “antinociceptive activity in the hot plate test” value (mice [3]; dose not given) was “antinociceptive activity”, the inhibition at 10 µM (ERα) was 13% and the inhibition at 10 µM (ERβ) was 7%. For the same molecule, the “Time Licking and biting (sec) Early phase (0-5 min)” value (from here on “Time Licking and biting … (0-5 min)”) (mice [4]; dose 1 mg/kg i.p.) was 57 s, the “Time Licking and biting (sec) Late phase (15-30 min)” value (mice [4]; dose 1 mg/kg i.p.) was 200 s and the “Time Licking and biting … (0-5 min)” value (mice [4]; dose 5 mg/kg i.p.) was 45 s. The “Time Licking and biting … (0-5 min)” value (mice [4]; dose 10 mg/kg i.p.) was 38 s and the “Time Licking and biting … (0-5 min)” value (mice [4]; dose 30 mg/kg i.p.) was 30 s.

Molecule `C=CCc1ccc(O)c(-c2ccc(OC(CCNC)c3ccccc3)c(CC=C)c2)c1` (centres unmarked) [Example 5, 3',5-Diallvl-4'-13-(methylamino)-1-phenylpropoxy]biphenyl-2-ol hydrochloride] has an inhibition at 10 µM (Src) greater than 100%, an inhibition at 10 µM (Akt3 (PRKBG)) of 101% and an inhibition at 10 µM [1] of 98%. The inhibition at 10 µM (MAPK1 (ERK2)) was 80%, the IC50 (tumor breast MCF-7) was 4.5 µM and the IC50 (tumor breast MDA-MB-231; MDA-MB-231) was 2.1 µM. It also gave an IC50 (tumor breast T-47D) of 1.6 µM, an IC50 (tumor liver Hep 3B) of 1.9 µM and an MTD [2] of 25 mg/kg.

`C=CCc1ccc(O)c(-c2ccc(O)c(CC=C)c2)c1` [Honokiol, reference compound] showed an IC50 (tumor brain U-87 MG) of 56 µM, an IC50 (tumor colon HCT-116) of 17 µM and an IC50 (tumor ovary OVCAR-3) of 38 µM.
